Measured values reported in patent US6906090B1, “Compositions and methods for treating mycobacterial diseases” (AstraZeneca AB, priority 1998, dated 2005).

system: M. tuberculosis; assay: BACTEC radiometric MIC test for bactericidal activity against M. tuberculosis; type: cell-based; details: Mycobacterium tuberculosis, read-out: minimum inhibitory concentration (MIC)

| Structure (SMILES) | MIC [µg/mL] |
| --- | --- |
| CC(C)CN1C(=O)C(=O)c2cccc(-c3ccccc3)c21 [Example 17, 1-(2-Methylpropyl)-7-phenyl-1H-indole-2,3-dione] | ≤ 20 |
| CCCCCCCCN1C(=O)C(=O)c2cccc(-c3ccccc3)c21 [Example 12, 1-Octyl-7-phenyl-1-H-indole-2,3-dione] | ≤ 20 |
| CCCCCCCN1C(=O)C(=O)c2cccc(-c3ccccc3)c21 [Example 11, 1-Heptyl-7-phenyl-1H-indole-2,3-dione] | ≤ 20 |
| O=C1C(=O)N(CCCCBr)c2c1cccc2-c1ccccc1 [Example 20, 1-(4-Bromobutyl)-7-phenyl-1H-indole-2,3-dione] | ≤ 20 |
| O=C1C(=O)N(CCN2CCN(Cc3ccccc3)CC2)c2c1cccc2C1CCCCCC1 [Example 2, 7-Cycloheptyl-1-[2-[4-(phenylmethyl)-1-piperazinyl]ethyl]-1H-indole-2,3-dione] | ≤ 20 |
| O=C1C(=O)N(CCN2CCN(Cc3ccccc3)CC2)c2ccc(N3CCCCC3)cc21 [Example 8, 5-(1-Piperidinyl)-1-[2-[4-(phenylmethyl)-1-piperazinyl]ethyl]-1H-indole-2,3-dione] | ≤ 20 |
| O=C1Cc2cc(C3CCCCC3)ccc2N1CCC1CCN(Cc2ccccc2)CC1 [Example 4, 5-Cyclohexyl-1,3-dihydro-1-[2-[1-(phenylmethyl) 4-piperidinyl]ethyl]-2H-2H-indol-2-one] | ≤ 20 |
| O=C1C(=O)N(CCN2CCN(Cc3ccccc3)CC2)c2ccc(-c3ccccc3)cc21 [Example 6, 5-Phenyl-1-[2-[4-(phenylmethyl)-1-perazinyl]ethyl]-1H-indole-2,3-dione] | ≤ 20 |
| CCCCCCCCCCN1C(=O)C(=O)c2cccc(-c3ccccc3)c21 [Example 13, 1-Decyl-7-phenyl-1-H-indole-2,3-dione] | ≤ 20 |
| CCCCCCN1C(=O)C(=O)c2cccc(-c3ccccc3)c21 [Example 18, 1-Hexyl-7-phenyl-1-indole-2,3-dione] | ≤ 20 |
| CCCCCCCCCCCN1C(=O)C(=O)c2cccc(-c3ccccc3)c21 [Example 14, 1-Undececyl-7-phenyl-1-H-indole-2,3-dione] | ≤ 20 |
| CCCCCCCCCCCCN1C(=O)C(=O)c2cccc(-c3ccccc3)c21 [Example 19, 1-Dodecyl-7-phenyl-1H-indole-2,3-dione] | ≤ 20 |
| CCCCCN1C(=O)C(=O)c2cccc(-c3ccccc3)c21 [Example 15, 1-Pentyl-7-phenyl-1H-indole-2,3-dione] | ≤ 20 |
| CCN(CCCCCN1C(=O)C(=O)c2cc(C3CCCCC3)ccc21)Cc1ccccc1 [Example 3, 5-Cyclohexyl-1-(5-(N-ethyl-N-phenylmethylamino)pentyl)-1H-indole-2,3-dione] | ≤ 20 |
| CCCCCCCCCN1C(=O)C(=O)c2cccc(-c3ccccc3)c21 [Example 10, 1-Nonyl-7-phenyl-1H-indole-2,3-dione] | ≤ 20 |
| O=C1C(=O)N(CCCCBr)c2ccc(C3CCCCC3)cc21 [Example 9, 1-(4-Bromobutyl)-5-cyclohexyl-1H-indole-2,3-dione] | ≤ 20 |
| O=C1C(=O)N(CCN2CCN(Cc3ccccc3)CC2)c2c1cccc2C1CCCC1 [Example 7, 7-Cyclopentyl-1-[2-[4-(phenylmethyl)-1-piperazinyl]ethyl]-1H-indole-2,3-dione] | ≤ 20 |
| CCCCN1C(=O)C(=O)c2cccc(-c3ccccc3)c21 [Example 16, 1-Butyl-7-phenyl-1H-inidole-2,3-dione] | ≤ 20 |
| O=C1C(=O)N(CCC2CCN(Cc3ccccc3)CC2)c2ccc(C3CCCCC3)cc21 [Example 1, 5-Cyclohexyl-1-[2-[1-(phenylmethyl)-4-piperidinyl]ethyl]-1H-indole-2,3-dione] | ≤ 20 |
| CCN(CCCCN1C(=O)C(=O)c2ccccc21)Cc1ccccc1 [Example 5, 1-(4-(N-Ethyl-N-phenylmethylamino)butyl)-1H-indole-2,3-dione] | ≤ 20 |
